{"source": "PubChem BioAssay AID1963830", "about": "(Molecular Pharmacology Branch, DTP, NCI, 2024);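 also: spheroids exposed to the agents for one week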;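 as to viability, T/C: 100% = DMSO vehicle control wells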", "tested_on": "922993-354-T-J3-PDC complex spheroid viability", "assay": "Anticancer human tumor 922993-354-T-J3-PDC patient-derived endometrial carcinoma cell line growth inhibition [POLQ]", "conditions": "for IC50: curve of first compound; for viability, T/C: stronger effect = lower value", "how_it_was_run": "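Complex spheroid viability model combining PDC tumour cells with endothelial (HUVEC) and MSC stromal cells. Novobiocin, ART-558 or RP6685 were tested singly and in combination with standard and investigational anticancer drugs. Each was titrated in half-log steps from near clinical Cmax, or from 10 microM where Cmax was unknown.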", "key": {"[1]": {"conditions": "second compound 0.0316 µM, first compound 0.0316 µM"}, "[2]": {"conditions": "second compound 0.0316 µM, first compound 0.1 µM"}, "[3]": {"conditions": "second compound 0.0316 µM, first compound 0.316 µM"}, "[4]": {"conditions": "second compound 0.0316 µM, first compound 1 µM"}, "[5]": {"conditions": "second compound 0.0316 µM, first compound 3.16 µM"}, "[6]": {"conditions": "second compound 0.0316 µM, first compound 10 µM"}, "[7]": {"conditions": "second compound 0.1 µM, first compound 0.0316 µM"}, "[8]": {"conditions": "second compound 0.1 µM, first compound 0.1 µM"}, "[9]": {"conditions": "second compound 0.1 µM, first compound 0.316 µM"}, "[10]": {"conditions": "second compound 0.1 µM, first compound 1 µM"}, "[11]": {"conditions": "second compound 0.1 µM, first compound 3.16 µM"}, "[12]": {"conditions": "second compound 0.1 µM, first compound 10 µM"}, "[13]": {"conditions": "second compound 0.316 µM, first compound 0.0316 µM"}, "[14]": {"conditions": "second compound 0.316 µM, first compound 0.1 µM"}, "[15]": {"conditions": "second compound 0.316 µM, first compound 0.316 µM"}, "[16]": {"conditions": "second compound 0.316 µM, first compound 1 µM"}, "[17]": {"conditions": "second compound 0.316 µM, first compound 3.16 µM"}, "[18]": {"conditions": "second compound 0.316 µM, first compound 10 µM"}, "[19]": {"conditions": "second compound 1 µM, first compound 0.0316 µM"}, "[20]": {"conditions": "second compound 1 µM, first compound 0.1 µM"}, "[21]": {"conditions": "second compound 1 µM, first compound 0.316 µM"}, "[22]": {"conditions": "second compound 1 µM, first compound 1 µM"}, "[23]": {"conditions": "second compound 1 µM, first compound 3.16 µM"}, "[24]": {"conditions": "second compound 1 µM, first compound 10 µM"}, "[25]": {"conditions": "second compound 3.16 µM, first compound 0.0316 µM"}, "[26]": {"conditions": "second compound 3.16 µM, first compound 0.1 µM"}, "[27]": {"conditions": "second compound 3.16 µM, first compound 0.316 µM"}, "[28]": {"conditions": "second compound 3.16 µM, first compound 1 µM"}, "[29]": {"conditions": "second compound 3.16 µM, first compound 3.16 µM"}, "[30]": {"conditions": "second compound 3.16 µM, first compound 10 µM"}, "[31]": {"conditions": "second compound 10 µM, first compound 0.0316 µM"}, "[32]": {"conditions": "second compound 10 µM, first compound 0.1 µM"}, "[33]": {"conditions": "second compound 10 µM, first compound 0.316 µM"}, "[34]": {"conditions": "second compound 10 µM, first compound 1 µM"}, "[35]": {"conditions": "second compound 10 µM, first compound 3.16 µM"}, "[36]": {"conditions": "second compound 10 µM, first compound 10 µM"}}, "data": [{"smiles": "C=CC(=O)N1CCN(c2nc(=O)n(-c3c(C)ccnc3C(C)C)c3nc(-c4c(O)cccc4F)c(F)cc23)C(C)C1", "note": "(centres undefined) + Nc1ccc(C#CCN(C(=O)Cc2ncc(C(F)(F)F)cc2C(F)(F)F)c2ccc(F)cc2)nn1", "values": [{"measurement": "IC50", "setting": "second compound 0.0316 µM", "result": "> 10", "unit": "µM"}, {"measurement": "IC50", "setting": "second compound 0.1 µM", "result": "> 10", "unit": "µM"}, {"measurement": "IC50", "setting": "second compound 0.316 µM", "result": "> 10", "unit": "µM"}, {"measurement": "IC50", "setting": "second compound 1 µM", "result": "> 10", "unit": "µM"}, {"measurement": "IC50", "setting": "second compound 3.16 µM", "result": "> 10", "unit": "µM"}, {"measurement": "IC50", "setting": "second compound 10 µM", "result": "> 10", "unit": "µM"}, {"measurement": "viability, T/C", "setting": "[1]", "result": 105, "unit": "%"}, {"measurement": "viability, T/C", "setting": "[2]", "result": 103, "unit": "%"}, {"measurement": "viability, T/C", "setting": "[3]", "result": 96.5, "unit": "%"}, {"measurement": "viability, T/C", "setting": "[4]", "result": 108, "unit": "%"}, {"measurement": "viability, T/C", "setting": "[5]", "result": 105, "unit": "%"}, {"measurement": "viability, T/C", "setting": "[6]", "result": 104, "unit": "%"}, {"measurement": "viability, T/C", "setting": "[7]", "result": 110, "unit": "%"}, {"measurement": "viability, T/C", "setting": "[8]", "result": 106, "unit": "%"}, {"measurement": "viability, T/C", "setting": "[9]", "result": 104, "unit": "%"}, {"measurement": "viability, T/C", "setting": "[10]", "result": 108, "unit": "%"}, {"measurement": "viability, T/C", "setting": "[11]", "result": 107, "unit": "%"}, {"measurement": "viability, T/C", "setting": "[12]", "result": 104, "unit": "%"}, {"measurement": "viability, T/C", "setting": "[13]", "result": 107, "unit": "%"}, {"measurement": "viability, T/C", "setting": "[14]", "result": 107, "unit": "%"}, {"measurement": "viability, T/C", "setting": "[15]", "result": 103, "unit": "%"}, {"measurement": "viability, T/C", "setting": "[16]", "result": 105, "unit": "%"}, {"measurement": "viability, T/C", "setting": "[17]", "result": 104, "unit": "%"}, {"measurement": "viability, T/C", "setting": "[18]", "result": 99.3, "unit": "%"}, {"measurement": "viability, T/C", "setting": "[19]", "result": 107, "unit": "%"}, {"measurement": "viability, T/C", "setting": "[20]", "result": 101, "unit": "%"}, {"measurement": "viability, T/C", "setting": "[21]", "result": 99.6, "unit": "%"}, {"measurement": "viability, T/C", "setting": "[22]", "result": 108, "unit": "%"}, {"measurement": "viability, T/C", "setting": "[23]", "result": 101, "unit": "%"}, {"measurement": "viability, T/C", "setting": "[24]", "result": 102, "unit": "%"}, {"measurement": "viability, T/C", "setting": "[25]", "result": 101, "unit": "%"}, {"measurement": "viability, T/C", "setting": "[26]", "result": 105, "unit": "%"}, {"measurement": "viability, T/C", "setting": "[27]", "result": 104, "unit": "%"}, {"measurement": "viability, T/C", "setting": "[28]", "result": 102, "unit": "%"}, {"measurement": "viability, T/C", "setting": "[29]", "result": 103, "unit": "%"}, {"measurement": "viability, T/C", "setting": "[30]", "result": 101, "unit": "%"}, {"measurement": "viability, T/C", "setting": "[31]", "result": 97.3, "unit": "%"}, {"measurement": "viability, T/C", "setting": "[32]", "result": 105, "unit": "%"}, {"measurement": "viability, T/C", "setting": "[33]", "result": 105, "unit": "%"}, {"measurement": "viability, T/C", "setting": "[34]", "result": 93.6, "unit": "%"}, {"measurement": "viability, T/C", "setting": "[35]", "result": 101, "unit": "%"}, {"measurement": "viability, T/C", "setting": "[36]", "result": 98.1, "unit": "%"}]}, {"smiles": "CC(C)n1c(=O)n(C)c2cnc3cc(F)c(-c4ccc(OCCCN5CCCCC5)nc4)cc3c21", "note": "+ Nc1ccc(C#CCN(C(=O)Cc2ncc(C(F)(F)F)cc2C(F)(F)F)c2ccc(F)cc2)nn1", "values": [{"measurement": "IC50", "setting": "second compound 0.0316 µM", "result": "> 10", "unit": "µM"}, {"measurement": "IC50", "setting": "second compound 0.1 µM", "result": "> 10", "unit": "µM"}, {"measurement": "IC50", "setting": "second compound 0.316 µM", "result": "> 10", "unit": "µM"}, {"measurement": "IC50", "setting": "second compound 1 µM", "result": "> 10", "unit": "µM"}, {"measurement": "IC50", "setting": "second compound 3.16 µM", "result": "> 10", "unit": "µM"}, {"measurement": "IC50", "setting": "second compound 10 µM", "result": "> 10", "unit": "µM"}, {"measurement": "viability, T/C", "setting": "[1]", "result": 101, "unit": "%"}, {"measurement": "viability, T/C", "setting": "[2]", "result": 99, "unit": "%"}, {"measurement": "viability, T/C", "setting": "[3]", "result": 99.1, "unit": "%"}, {"measurement": "viability, T/C", "setting": "[4]", "result": 95.2, "unit": "%"}, {"measurement": "viability, T/C", "setting": "[5]", "result": 93.9, "unit": "%"}, {"measurement": "viability, T/C", "setting": "[6]", "result": 86.7, "unit": "%"}, {"measurement": "viability, T/C", "setting": "[7]", "result": 107, "unit": "%"}, {"measurement": "viability, T/C", "setting": "[8]", "result": 103, "unit": "%"}, {"measurement": "viability, T/C", "setting": "[9]", "result": 104, "unit": "%"}, {"measurement": "viability, T/C", "setting": "[10]", "result": 95.3, "unit": "%"}, {"measurement": "viability, T/C", "setting": "[11]", "result": 86.7, "unit": "%"}, {"measurement": "viability, T/C", "setting": "[12]", "result": 84.7, "unit": "%"}, {"measurement": "viability, T/C", "setting": "[13]", "result": 106, "unit": "%"}, {"measurement": "viability, T/C", "setting": "[14]", "result": 107, "unit": "%"}, {"measurement": "viability, T/C", "setting": "[15]", "result": 93.9, "unit": "%"}, {"measurement": "viability, T/C", "setting": "[16]", "result": 101, "unit": "%"}, {"measurement": "viability, T/C", "setting": "[17]", "result": 93.9, "unit": "%"}, {"measurement": "viability, T/C", "setting": "[18]", "result": 80.1, "unit": "%"}, {"measurement": "viability, T/C", "setting": "[19]", "result": 103, "unit": "%"}, {"measurement": "viability, T/C", "setting": "[20]", "result": 95.9, "unit": "%"}, {"measurement": "viability, T/C", "setting": "[21]", "result": 99.6, "unit": "%"}, {"measurement": "viability, T/C", "setting": "[22]", "result": 98.9, "unit": "%"}, {"measurement": "viability, T/C", "setting": "[23]", "result": 94, "unit": "%"}, {"measurement": "viability, T/C", "setting": "[24]", "result": 80.4, "unit": "%"}, {"measurement": "viability, T/C", "setting": "[25]", "result": 96.9, "unit": "%"}, {"measurement": "viability, T/C", "setting": "[26]", "result": 99.4, "unit": "%"}, {"measurement": "viability, T/C", "setting": "[27]", "result": 94.6, "unit": "%"}, {"measurement": "viability, T/C", "setting": "[28]", "result": 98.1, "unit": "%"}, {"measurement": "viability, T/C", "setting": "[29]", "result": 88.6, "unit": "%"}, {"measurement": "viability, T/C", "setting": "[30]", "result": 84.1, "unit": "%"}, {"measurement": "viability, T/C", "setting": "[31]", "result": 98.8, "unit": "%"}, {"measurement": "viability, T/C", "setting": "[32]", "result": 92.8, "unit": "%"}, {"measurement": "viability, T/C", "setting": "[33]", "result": 94.9, "unit": "%"}, {"measurement": "viability, T/C", "setting": "[34]", "result": 90.6, "unit": "%"}, {"measurement": "viability, T/C", "setting": "[35]", "result": 92.5, "unit": "%"}, {"measurement": "viability, T/C", "setting": "[36]", "result": 82.1, "unit": "%"}]}]}
